In patent EP2271935B1, “METHOD AND KIT FOR THE EX VIVO EVALUATION OF THE RESPONSE OF A TUMOR TO CONDITIONS TO BE TESTED” (Universität Leipzig, priority 2008, dated 2009):

System: epithelial cell line KB (DSMZ ACC 136)
Assay: MTT assay of proliferation under varied riboflavin content and light exposure
Format: cell-based, human
Source text: To address this question, three media, a) the RPMI 1640 without riboflavin and phenol red that is used in the method according to the invention and was manufactured according to our specifications by Biochrom, as well as two different RPMI 1640 charges purchased from Invitrogen which were each containing 532 nmol/L riboflavin, b) a phenol red-free (Gibco 11835), and c) a conventional RPMI 1640 (Gibco 21875) with 13.284 µmol/L phenol red. All media were supplemented with 2 mmol/L L-alanyl-1-glutamine as stabilized glutamine source (Biochrom K0302 Lot 0755 S) and the same amount of 10% (v/v) of heat-inactivated fetal calf serum (FCS) that was purchased from Invitrogen (Lot 41Q7554K) with a yield of 198 nmol/L riboflavin. […] These medium concentrations define the riboflavin concentrations in controls (see below).
In addition to the influences exerted by the different types of media alone, the riboflavin-dependent impact on the outcome of the docetaxel treatment was investigated. For this purpose 100 µl/well of docetaxel dilutions containing threefold the concentration indicated were added into the wells of microwell plates. The following seven docetaxel concentrations were tested: 19.38, 38.75, 77.5, 155, 310, 620, and 1,240 pmol/L.
To examine photoactivation-dependent riboflavin-mediated effects disturbing the outcome of ex-vivo chemoresponse-evaluation by conventional cell culture medium, and in particular in the absence of flavin-protecting experimental conditions, varying amounts of riboflavin were added. A stock solution of 200 µM (-)-riboflavin (CAS 83-68-5, Sigma R9504, FW=376.37 g/mol, purity >99%, cell culture tested) in phosphate buffered saline was diluted to adjust in each case the highest final concentration in culture (this means: after completion of the assay by addition of the other two components to the final assay volume of 300 µL) to exactly 10 µmol/L. Serial log10-dilutions were made from this concentration in each corresponding medium. These gave final concentrations in cell culture of 10.000, 1.018, 0.12, and 0.03 µmol/L in the case of medium a) (the medium according to the method of the invention), and concentrations of 10.000, 1.449, 0.594, and 0.508 µmol/L using media b) and c).
In general, each combination of riboflavin and docetaxel were tested in duplicate, and controls without additional riboflavin in quadruplicate for each experimental setting in the same 96-well plate. The experimental conditions were as follows: For each of the used media, two different plates were prepared simultaneously and either handled completely under flavin-protecting conditions (illumination only by sodium discharge lamps with an emission wavelength of 589 nm [i]), or in the same bench (Thermo MSC 12) with the installed light inside their working chamber switched on. The dilution of docetaxel and those of riboflavin in the particular medium were prepared for all four plates of each medium type prior to the other working steps under flavin-protecting conditions. Thus the administrations of these dilutions took about 20 min either under flavin-protecting conditions or illuminated conditions. After completed preparation of the plates that thereafter contained 200 µL of both diluted compounds, the plates were incubated 2 h in the incubator to allow for adjustment of the appropriate pH.
In between the stock culture of KB was harvested by trypsination of a 3-days stock culture (exponential growth phase). Stock cultures of KB cells always were grown without any antibiotic or antimycotic in phenol red- and riboflavin-free RPMI 1640 supplemented with 10% (v/v) FCS and were adapted to this medium for more than five passages. They were always handled at room temperature or warmer and were never exposed to light other than the light of a sodium discharge lamp with an emission wavelength of 589 nm for at least five passages. […]

Cc1cc2nc3c(=O)[nH]c(=O)nc-3n(C[C@H](O)[C@H](O)[C@H](O)CO)c2cc1C [riboflavin, (-)-riboflavin]
toxicity of riboflavin to KB cells (10 µmol/L riboflavin; plate 03, medium a), bench lighting below 30 min): complete die off of the KB cells | riboflavin concentrations leading to complete dying of all KB cells (exposed to daylight 30 min (plates 02, 04, 06, 08, 10, and 12)): above 594 nmol/L
